# Data published in article PMC8659091, “Preparation, Characterization, and Bioavailability of Host-Guest Inclusion Complex of Ginsenoside Re with Gamma-Cyclodextrin” (Molecules, 2021).
# Read-outs that look alike come from different tables or passages of the source.
# How the values were obtained:
# [1] = design: method as in PMID 22314249, PMID 25197955, PMID 19729261; conditions: after oral administration; cited from earlier work
# [2] = Dissolution test in water (rotatory-basket method); format: physicochemical; conditions: at 30 min, 37 °C, 100 rpm, 20 mg as Re in 200 mL
# Protocol: G-Re, G-Re-γ-CD physical mixtures, and the G-Re-γ-CD ICs (20 mg as Re) were inserted into a basket in a automatic dissolution testing system (RC806D, Tianjin Tianda Technology Co.,Ltd, Tianjin, China) containing 200 mL of water according to the dissolution method (Chp. 2020 Vol II Addium XC rotatory-basket method). The speed was set at 100 rpm, and the temperature was 37 ± 0.5 °C. Then an equal amount of solution (1 mL) needed to be taken at timepoints of 5, 15, 30, 45, and 60 min; at the same time, 1 mL solution should be replaced. As described below, the determination of G-Re concentration by 205 nm high-performance liquid chromatography was feasible. The G-Re concentration was detected with the same HPLC method applied in the phase solubility test.
# (§1) The contents of G-Re from the dissolution sample and phase solubility sample were determined with the help of HPLC on the C18 column (Ascentis® Express, 10 cm × 2.1 mm, 2.6 μm, Sigma, USA), which was installed an Agilent system. This system consisted of a micro degasser, an auto plate sampler, a system binary pump, as well as a thermostatically controlled column apartment at 30 °C. Samples were separated under elution conditions at A (acetonitrile) and B (water) = 19: 81 (v/v). Then, the flow rate was set at 0.5 mL per minute and the injection volume at 5 μL, while the G-Re was detected spectrophotometrically at 205 nm.
# [3] = Pharmacokinetic / bioavailability study after single oral administration, plasma LC-MS/MS; format: in vivo, Sprague-Dawley rats; conditions: rats, 100 mg/kg, mean ± SD
# Protocol: The animal studies carried out in this study strictly followed the instructions of the Animal Care and Use Committee of the Changchun university of Chinese medicine (Approval Number: 20190030). Adult male Sprague-Dawley rats (200-220 g; Yisi Experimental Animal Technology Co., Ltd., Changchun, China Approved number: SCXK (JI) 2018-0007) were used for the pharmacokinetic studies. All rats were not allowed to be fed for 24 h before the oral dosing and likewise after the drug administration. Besides, all of them needed to be brought up under a controlled temperature ranging from 20 to 24 °C with a 12-h light/dark cycle. G-Re powder and G-Re-γ-CD complex were suspended in double-distilled water prior to use at 100 mg/kg. […] The blood samples were centrifuged for 10 min at 4000 rpm to harvest the plasma sample (100 μL). Then, the G-Rf (10 μL, 10 ng/mL) was added into each tube rapidly to work as the inherent criterion. After that, a mixed 0.5 mL methanol-acetonitrile (60:40, v/v) should be added for precipitating proteins and extracting interested compounds. The samples were then rotated for 3 min and centrifuged at 15,000×grams for 10 min. By separating and evaporating, the supernatant was obtained on the condition that the nitrogen flow dried gently at 40 °C. Additionally, the residue was reconstituted by vortexing for 1 min with 0.2 mL methanol-water (80:20, v/v). Furthermore, the supernatant was transferred into auto-sampler vials using 5 μL aliquot to inject to the LC-MS/MS system. This method could be carried out by a combination of a Thermo TSQ Endura triple-quadrupole tandem mass spectrometer (Thermo Fisher Inc., Waltham, USA), which is a method named electrospray ionization (ESI), and an Ultimate 3000 LC system which is composed of a vacuum degasser, a quaternary pump, as well as an auto-sampler. Xcalibur 2.2 (SP1.48) software was used to acquire and analyze the data (Thermo Fisher Inc., Waltham, USA). After that, the separation of chemical materials was conducted by using the reverse-phase Accucore C18 analytical column (100 mm × 2.1 mm, 2.6 μm, Thermo Fisher Inc., Waltham, USA). This column was available for the linear gradient elution by using the mobile phase, which consisted of water embracing 0.1% formic acid (A) and acetonitrile (B). Steps are described as follows: 0 min (A 75%-B 25%)-5.0 min (A 70%-B 30%)-8 min (A 68%-B 32%)-9 min (A 64%-B 36%)-16 min (A 63%-B 37%)-16.8 min (A 52%-B 48%)-17.8 min (A 30%-B 70%)-18.8 min (A 10%-B 90%)-20.8 min (A 75%-B 25%)-25 min (A 75%-B 25%). The flow rate should be 0.2 mL per minute, and the volume of injection needed to be 5 μL. This process needed to be performed using the ESI negative ionization and multiple reactions monitoring (MRM) mode. Furthermore, the parameters of spray voltage were 3 kV, the parameters of capillary temperature was 325 °C, and the pressure of nitrogen sheath gas and auxiliary gas were 30 arb and 10 arb. The formic acid adduct [M+HCOO]- is the dominant parent ion of products. […] Finally, the ion transition situations for multiple reactions monitoring (MRM) were m/z 945.5→637.3 and 637.3→475.3 for G-Re, m/z 799.5→637.3 and 637.3→475.3 for IS. After oral administration, non-compartment approaches could be utilized [NT]-Re's t pharmacokinetic parameters. The part under the plasma concentration-time curve increasing from 0 to infinity (AUC0→∞) could be computed by the equation AUC0→∞ = AUCt + Ct/k. In this equation, Ct could be seen as the last concentration which could be quantized, and the calculation of k could be conducted by a straight-line's slope in plasma disappearance's terminal phase. […] Furthermore, with the help of linear trapezoidal approximation, it was easy to calculate the area below the plasma concentration-time curve increasing from 0 to the time of the last quantifiable concentration (AUCt). The calculation of bioavailability value for G-Re's oral doses needed to be conducted according to the AUC's dose-adjusted ratio. […]
# [4] = Phase solubility study of G-Re with CDs in water; format: physicochemical; conditions: for stability constant Ks: G-Re with the CD, 1:1 stoichiometry; for △G: Gibbs free energy change of complexation with G-Re, ΔG = −RTln Ks; for Ks: apparent stability constant of G-Re with the CD, Ks=slope/S0(1-slope); for Ks / 1/Slope / Slope: water, 25 °C; for 1/Slope: phase solubility of G-Re; for Slope: slope of phase solubility curve of G-Re vs CD concentration
# Protocol: Phase solubility studies were performed in water in accordance with the method formerly stated by Higuchi and Connors. In brief, an excess amount of G-Re was supplemented into 10 mL Eppendorf tubes with aqueous solution, including various concentrations of α-CD, β-CD, and γ-CD, respectively. Suspensions were vigorously shaken in 25 °C water bath for a week. After equilibrium was reached, the solutions were centrifuged for 5 min at 4000 rpm (1500 g). Meanwhile, a 0.22 μm membrane was used to further filter the supernatant. The filtrate was diluted and HPLC was employed to determine G-Re content.
# The phase solubility curves were obtained with the regression of the concentrations of cyclodextrin (mol L^−1) as X-axis and the concentration of G-Re (mol L^−1) as Y-axis. The value of apparent stability constant (Ks) was defined by using the straight-line portion in the phase-solubility to the equation as follows: Ks=slope/S0(1-slope)
# In this formula, R can be seen as the general gas constant, which equaled 8.314 J/mol K, and T can be considered as the experimental operating temperature.
# as §1
# [5] = male, Sprague-Dawley, rat, plasma, n = 6
Structure (SMILES),bioavailability [1],tmax [1],dissolution rate [2] [%],"AUC(0-inf) [3, 5] [ng·h/mL]","Cmax [3, 5] [ng/mL]","MRT [3, 5] [h]","half-life [3, 5] [h]","tmax [3, 5] [h]","AUC(0-t) ([3]; male, Sprague-Dawley, rat, plasma, n = 6, called AUC0–t, read-out: AUC0–24h) [ng·h/mL]",CLt ([3]; n = 6) [L/h],Vdss ([3]; n = 6) [L/kg],stability constant Ks [4] [M⁻¹],△G [4] [kcal/mol],Ks [4] [M⁻¹],1/Slope [4],Slope [4],inclusion constant relative to that of α-CD ([4]; G-Re as guest) [times]
"CC(C)=CCC[C@](C)(O[C@@H]1O[C@H](CO)[C@@H](O)[C@H](O)[C@H]1O)[C@H]1CC[C@]2(C)[C@@H]1[C@H](O)C[C@@H]1[C@@]3(C)CC[C@H](O)C(C)(C)[C@@H]3[C@@H](O[C@@H]3O[C@H](CO)[C@@H](O)[C@H](O)[C@H]3O[C@@H]3O[C@@H](C)[C@H](O)[C@@H](O)[C@H]3O)C[C@]12C [G-Re, Ginsenoside Re]",low,short,6.73,130 ± 54.1,32.2 ± 8.15,5.15 ± 0.968,12.2 ± 1.56,1.02 ± 0.036,113 ± 44.6,2.401 ± 0.52,13.691 ± 3.74,–,–,–,–,–,–
OC[C@H]1O[C@@H]2O[C@H]3[C@H](O)[C@@H](O)[C@@H](O[C@H]4[C@H](O)[C@@H](O)[C@@H](O[C@H]5[C@H](O)[C@@H](O)[C@@H](O[C@H]6[C@H](O)[C@@H](O)[C@@H](O[C@H]7[C@H](O)[C@@H](O)[C@@H](O[C@H]1[C@H](O)[C@H]2O)O[C@@H]7CO)O[C@@H]6CO)O[C@@H]5CO)O[C@@H]4CO)O[C@@H]3CO [α-CD],–,–,–,–,–,–,–,–,–,–,–,22,-1.831,22,116.28,0.0086,–
OC[C@H]1O[C@@H]2O[C@H]3[C@H](O)[C@@H](O)[C@@H](O[C@H]4[C@H](O)[C@@H](O)[C@@H](O[C@H]5[C@H](O)[C@@H](O)[C@@H](O[C@H]6[C@H](O)[C@@H](O)[C@@H](O[C@H]7[C@H](O)[C@@H](O)[C@@H](O[C@H]8[C@H](O)[C@@H](O)[C@@H](O[C@H]1[C@H](O)[C@H]2O)O[C@@H]8CO)O[C@@H]7CO)O[C@@H]6CO)O[C@@H]5CO)O[C@@H]4CO)O[C@@H]3CO [β-CD],–,–,–,–,–,–,–,–,–,–,–,612,-3.7976,612,5.16,0.1935,–
OC[C@H]1O[C@@H]2O[C@H]3[C@H](O)[C@@H](O)[C@@H](O[C@H]4[C@H](O)[C@@H](O)[C@@H](O[C@H]5[C@H](O)[C@@H](O)[C@@H](O[C@H]6[C@H](O)[C@@H](O)[C@@H](O[C@H]7[C@H](O)[C@@H](O)[C@@H](O[C@H]8[C@H](O)[C@@H](O)[C@@H](O[C@H]9[C@H](O)[C@@H](O)[C@@H](O[C@H]1[C@H](O)[C@H]2O)O[C@@H]9CO)O[C@@H]8CO)O[C@@H]7CO)O[C@@H]6CO)O[C@@H]5CO)O[C@@H]4CO)O[C@@H]3CO [γ-CD],–,–,–,–,–,–,–,–,–,–,–,–,-5.673,14410,1.18,0.8494,655
